In the NIST ThermoML archive (doi:10.1021/je060271a):

Details: 283.15 K, Liquid, Vibrating tube method

CCCCC(=O)OCC(COC(=O)CCCC)(COC(=O)CCCC)COC(=O)CCCC [pentaerythritol tetrapentanoate]
Details | mass density [kg/m3]
27222 kPa | 1042.2
27265 kPa | 1042.3
27300 kPa | 1042.3
27336 kPa | 1042.4
27379 kPa | 1042.4
27415 kPa | 1042.3
27450 kPa | 1042.4
27493 kPa | 1042.5
27528 kPa | 1042.4
27564 kPa | 1042.3
27608 kPa | 1042.5
27645 kPa | 1042.6
27681 kPa | 1042.5
27718 kPa | 1042.5
27762 kPa | 1042.5
27798 kPa | 1042.5
27842 kPa | 1042.6
27879 kPa | 1042.6
27916 kPa | 1042.6
27961 kPa | 1042.6
27998 kPa | 1042.8
28035 kPa | 1042.7
28074 kPa | 1042.8
28121 kPa | 1042.7
28158 kPa | 1042.7
28196 kPa | 1042.8
28241 kPa | 1042.8
28279 kPa | 1042.8
28316 kPa | 1042.8
28354 kPa | 1042.8
28400 kPa | 1042.8
28438 kPa | 1043
28477 kPa | 1043
28524 kPa | 1043
28563 kPa | 1043
28610 kPa | 1043
28652 kPa | 1043
28691 kPa | 1043.1
28730 kPa | 1043.1
28770 kPa | 1043
28816 kPa | 1043.1
28856 kPa | 1043.1
28896 kPa | 1043.1
28944 kPa | 1043.2
28984 kPa | 1043.2
29024 kPa | 1043.1
29072 kPa | 1043.3
29112 kPa | 1043.2
29153 kPa | 1043.3
29194 kPa | 1043.3
29244 kPa | 1043.3
29285 kPa | 1043.3
29333 kPa | 1043.4
29375 kPa | 1043.4
29416 kPa | 1043.4
29458 kPa | 1043.4
29508 kPa | 1043.4
29549 kPa | 1043.5
29592 kPa | 1043.4
29642 kPa | 1043.4
29685 kPa | 1043.6
29737 kPa | 1043.6
29782 kPa | 1043.6
29825 kPa | 1043.6
29869 kPa | 1043.7
29926 kPa | 1043.7
29972 kPa | 1043.7
30019 kPa | 1043.7
30074 kPa | 1043.7
30106 kPa | 1043.7
30144 kPa | 1043.9
30175 kPa | 1043.8
30205 kPa | 1043.8
30243 kPa | 1043.8
30275 kPa | 1043.9
30307 kPa | 1043.9
30340 kPa | 1044
30379 kPa | 1043.8
30413 kPa | 1043.9
30453 kPa | 1043.9
30485 kPa | 1044
30517 kPa | 1044
30549 kPa | 1044
30588 kPa | 1043.9
30621 kPa | 1044
30653 kPa | 1044.2
30692 kPa | 1044
30724 kPa | 1044.1
30757 kPa | 1044.1
30795 kPa | 1044.1
30828 kPa | 1044.1
30860 kPa | 1044.2
30899 kPa | 1044.1
30932 kPa | 1044.2
30965 kPa | 1044.2
31004 kPa | 1044.3
31038 kPa | 1044.2
31071 kPa | 1044.3
31110 kPa | 1044.2
31144 kPa | 1044.3
31178 kPa | 1044.4
31218 kPa | 1044.3
31252 kPa | 1044.4
31285 kPa | 1044.5
31325 kPa | 1044.3
31359 kPa | 1044.5
31393 kPa | 1044.4
31427 kPa | 1044.5
31468 kPa | 1044.5
31503 kPa | 1044.5
31544 kPa | 1044.5
31578 kPa | 1044.5
31613 kPa | 1044.6
31650 kPa | 1044.6
31685 kPa | 1044.5
31726 kPa | 1044.7
31762 kPa | 1044.6
31797 kPa | 1044.7
31839 kPa | 1044.7
31874 kPa | 1044.7
31909 kPa | 1044.7
31951 kPa | 1044.8
31987 kPa | 1044.8
32023 kPa | 1044.7
32066 kPa | 1044.8
32103 kPa | 1044.7
32141 kPa | 1044.8
32177 kPa | 1044.8
32214 kPa | 1044.9
32257 kPa | 1044.9
32294 kPa | 1044.9
32337 kPa | 1044.8
32373 kPa | 1045.1
32410 kPa | 1044.9
32447 kPa | 1044.9
32491 kPa | 1045
32528 kPa | 1045
32572 kPa | 1045
32609 kPa | 1045.1
32647 kPa | 1045.2
32691 kPa | 1045.2
32728 kPa | 1045.1
32766 kPa | 1045.2
32804 kPa | 1045.1
32850 kPa | 1045.1
32887 kPa | 1045.2
32925 kPa | 1045.2
32971 kPa | 1045.2
33008 kPa | 1045.2
33055 kPa | 1045.3
33093 kPa | 1045.2
33133 kPa | 1045.3
33172 kPa | 1045.3
33218 kPa | 1045.3
33258 kPa | 1045.4
33297 kPa | 1045.4
33344 kPa | 1045.4
33383 kPa | 1045.5
33430 kPa | 1045.5
33471 kPa | 1045.4
